IC50 and EC50 data for two compounds are collected here from paper PMC5121239, “Muscle-Type Nicotinic Receptor Modulation by 2,6-Dimethylaniline, a Molecule Resembling the Hydrophobic Moiety of Lidocaine” (Frontiers in Molecular Neuroscience, 2016).

Molecules are shown by their SMILES.

A word on the IC50: it is the concentration at which inhibition is half-maximal. Low values mean greater potency, high ones weaker potency. Usually EC50 stands for the midpoint of the concentration-response curve. The low end stands for higher potency in that assay, the high end for lower potency in that assay.

Experiment [1] deals with T1, muscle-type nicotinic acetylcholine receptor (nAChR) (Torpedo marmorata, UniProt P02711+Q6S3H8+Q6S3H9+Q6S3I0).
T1 construct: gene CHRNA1; purified electroplax nAChR reconstituted in asolectin lipids and microtransplanted to Xenopus oocytes; with nAChR beta, gamma and delta subunits (alpha1, alpha2, beta, gamma, delta heteropentamer)
As to the kind of experiment: two-electrode voltage clamp in Xenopus oocytes, inhibition of current evoked by […] ACh. The experiment is classed as cell-based.

In experiment [2] the target is T1, muscle-type nicotinic acetylcholine receptor (nAChR). Briefly: two-electrode voltage clamp in Xenopus oocytes, agonist concentration-response. The experiment is classed as cell-based.

T1 sequence (P02711 25-461): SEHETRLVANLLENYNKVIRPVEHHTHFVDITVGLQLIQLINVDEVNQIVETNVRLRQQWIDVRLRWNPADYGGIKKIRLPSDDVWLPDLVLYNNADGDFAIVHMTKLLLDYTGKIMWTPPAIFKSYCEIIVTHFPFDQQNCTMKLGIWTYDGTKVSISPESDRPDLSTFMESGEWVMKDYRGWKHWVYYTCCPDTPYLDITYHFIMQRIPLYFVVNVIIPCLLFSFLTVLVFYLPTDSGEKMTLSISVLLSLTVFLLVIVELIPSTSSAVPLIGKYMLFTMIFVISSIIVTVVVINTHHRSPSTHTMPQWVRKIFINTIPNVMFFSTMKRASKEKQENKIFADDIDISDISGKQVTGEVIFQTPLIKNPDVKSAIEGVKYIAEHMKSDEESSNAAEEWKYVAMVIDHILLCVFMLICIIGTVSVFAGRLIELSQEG
T1 sequence (Q6S3I0 25-493): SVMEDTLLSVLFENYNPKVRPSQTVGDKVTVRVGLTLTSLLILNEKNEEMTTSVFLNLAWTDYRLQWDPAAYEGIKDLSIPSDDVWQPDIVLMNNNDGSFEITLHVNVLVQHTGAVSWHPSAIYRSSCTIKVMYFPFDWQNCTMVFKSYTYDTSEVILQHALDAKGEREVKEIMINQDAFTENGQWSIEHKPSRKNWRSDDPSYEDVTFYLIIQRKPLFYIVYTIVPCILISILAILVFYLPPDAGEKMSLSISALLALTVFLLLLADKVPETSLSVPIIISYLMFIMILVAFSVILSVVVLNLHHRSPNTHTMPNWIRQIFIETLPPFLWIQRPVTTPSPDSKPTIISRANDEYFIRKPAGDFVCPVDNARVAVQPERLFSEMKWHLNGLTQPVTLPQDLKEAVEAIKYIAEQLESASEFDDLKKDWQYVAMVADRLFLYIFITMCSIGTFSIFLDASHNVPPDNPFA
T1 sequence (Q6S3H9 18-505): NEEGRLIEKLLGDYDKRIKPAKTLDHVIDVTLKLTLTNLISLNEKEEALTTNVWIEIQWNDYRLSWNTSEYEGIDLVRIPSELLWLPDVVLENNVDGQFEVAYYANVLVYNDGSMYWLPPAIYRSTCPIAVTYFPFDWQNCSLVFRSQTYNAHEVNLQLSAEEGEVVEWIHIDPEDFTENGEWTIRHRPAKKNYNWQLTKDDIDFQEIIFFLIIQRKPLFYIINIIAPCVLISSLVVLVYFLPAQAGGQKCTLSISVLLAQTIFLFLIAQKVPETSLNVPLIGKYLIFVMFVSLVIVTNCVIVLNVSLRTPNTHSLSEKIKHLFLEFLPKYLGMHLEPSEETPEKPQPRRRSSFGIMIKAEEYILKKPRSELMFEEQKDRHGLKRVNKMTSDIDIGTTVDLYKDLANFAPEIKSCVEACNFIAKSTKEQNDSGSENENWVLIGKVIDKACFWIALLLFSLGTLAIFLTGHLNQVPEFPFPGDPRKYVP
T1 sequence (Q6S3H8 22-522): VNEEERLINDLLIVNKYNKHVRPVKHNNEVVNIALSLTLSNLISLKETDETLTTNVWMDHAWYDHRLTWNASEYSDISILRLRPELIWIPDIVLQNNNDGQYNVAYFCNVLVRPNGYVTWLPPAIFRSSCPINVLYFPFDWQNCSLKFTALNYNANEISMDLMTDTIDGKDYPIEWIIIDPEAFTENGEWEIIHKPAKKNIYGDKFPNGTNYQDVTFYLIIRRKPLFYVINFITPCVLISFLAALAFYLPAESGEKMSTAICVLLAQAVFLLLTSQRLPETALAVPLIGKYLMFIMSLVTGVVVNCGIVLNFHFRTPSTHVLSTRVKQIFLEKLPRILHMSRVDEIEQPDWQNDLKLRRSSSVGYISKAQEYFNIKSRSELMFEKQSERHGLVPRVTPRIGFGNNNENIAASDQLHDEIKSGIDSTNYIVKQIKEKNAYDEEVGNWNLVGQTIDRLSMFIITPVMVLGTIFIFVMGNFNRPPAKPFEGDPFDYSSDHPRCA

`Cc1cccc(C)c1N` [DMA, 2,6-dimethylaniline] gave an IC50 in experiment [1] of 2100 µM.
Turning to `CC(=O)OCC[N+](C)(C)C` [ACh, acetylcholine], a half-maximal response in experiment [2] (EC50) required 29 µM.
